In patent publication US8455023B2, “Composition for inhibiting melanogenesis and use thereof” (Kaohsiung Medical University, priority 2010, dated 2013):
Like-named read-outs stand apart in the source and are kept apart here.

Key:
Type in all cases: cell-based
[1] = system: Neonatal foreskin primary human epidermal melanocytes (HEMn-MP); assay: Melanin quantitation analysis in HEMn-MP cells; conditions: for Cell melanin content (in words): FIG. 2C; for Percentage of cellular melanin concentration (%): control = 100%
Method: Lin's method was used to quantify melanin (Lin et al., Constituents from the Formosan apple reduce tyrosinase activity in human epidermal melanocytes 2007 Phytochemistry Volume 68, Issue 8, Pages 1189-1199). Cells were resuspend in 1N NaOH and dimethyl sulfoxide (DSMO), heated at 80° C. for 1 hour, centrifuged for 10 min at 10,000 rpm, and measured OD 405 nm value of supernatant. As shown in Table 3 and FIG. 2C, the control group value was set as 100%. All results obtained from 3 independent experiments.

[2] = system: Neonatal foreskin primary human epidermal melanocytes (HEMn-MP); assay: Toxicity assay (MTS) in human melanocytes
Method: Neonatal foreskin primary human epidermal melanocytes (HEMn-MP) was purchased from Cascade Biologics™, and cultured in 254 medium (Cascade Biologics™) with human melanocyte growth supplement (HMGS, cat. #S-002-5). Cells were maintained at 37° C. humid environment (5% CO2). Neonatal foreskin primary human epidermal melanocytes (HEMn-MP) were cultured in 24-Well plates at seeding density of 10^5 cells/well.
MTS assay (Mosmann T, Rapid colorimetric assay for cellular growth and survival: application to proliferation and cytotoxicity assays J Immunol Methods 1983 16; 65(1-2):55-63) was used for cell toxicity assay. […] The stimulation of MSH to melanin synthesis was used as a reference for comparison of compound (I) and (II). Control group value was set as 100% which obtained from 3 independent experiments.

[3] = system: Neonatal foreskin primary human epidermal melanocytes (HEMn-MP); assay: Microscopic appearance of HEMn-MP cells (FIG. 3); conditions: high concentrations; 200× bright field; FIGS. 3E and 3J
Description: Microscopic images were taken under 200× magnification bright field view. The arrow head indicates bipolar appearance of neonatal foreskin primary human epidermal melanocyte (HEMn-MP).
Under 200× bright field microscope, the control group and low concentration compound (I) and (II) treated cells (FIGS. 3A, 3H, 3I, 3M and 3N) were lined up tightly showing bipolar appearance.

tyrosinase = target: T1, tyrosinase (Homo sapiens, UniProt P14679); assay: Tyrosinase activity assay (dopachrome biosynthesis rate, lysate of treated HEMn-MP cells); conditions: for Tyrosinase activity percentage (%): 3 days, control = 100%; for Tyrosinase activity (in words): FIG. 2B
T1 construct: endogenous in cells; host or cells: HEMn-MP human epidermal melanocytes (lysate in 1% Triton X-100/PBS)
T1 sequence (P14679 19-529): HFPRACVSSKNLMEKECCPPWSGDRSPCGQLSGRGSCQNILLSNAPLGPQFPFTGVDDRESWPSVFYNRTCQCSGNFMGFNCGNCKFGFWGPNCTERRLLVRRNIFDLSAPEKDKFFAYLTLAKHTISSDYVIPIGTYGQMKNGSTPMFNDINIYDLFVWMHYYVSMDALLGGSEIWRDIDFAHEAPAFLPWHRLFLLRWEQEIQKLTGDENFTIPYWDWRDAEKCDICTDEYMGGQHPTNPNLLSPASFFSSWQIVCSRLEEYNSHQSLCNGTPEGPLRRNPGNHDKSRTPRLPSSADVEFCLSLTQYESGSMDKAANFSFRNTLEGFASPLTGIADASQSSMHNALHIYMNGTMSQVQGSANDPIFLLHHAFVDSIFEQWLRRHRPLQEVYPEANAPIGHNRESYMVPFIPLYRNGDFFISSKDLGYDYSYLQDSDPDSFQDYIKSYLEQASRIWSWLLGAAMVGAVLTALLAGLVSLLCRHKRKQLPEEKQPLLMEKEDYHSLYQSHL
Method: Cultured cells were rinsed with […] resuspend in 1% Triton X-100/PBS. Cell lysate was harvested. L-Dopa and L-tyrosine 10 μl (10 mM in 0.1M PBS, pH 6.8) were added and incubated at 37° C. for 3 hours. After reaction, the OD 490 nm value was measured.

[4] = reference, concentration 100 μM

| Tyrosinase activity percentage (%) (tyrosinase; 0.01 μM) | Tyrosinase activity percentage (%) (tyrosinase; 0.1 μM (MSH concentration)) | Tyrosinase activity percentage (%) (tyrosinase; 1 μM) | Tyrosinase activity percentage (%) (tyrosinase; 5 μM) | Tyrosinase activity percentage (%) (tyrosinase; 10 μM) | SMILES | Cell melanin content (in words) [1] | Percentage of cellular melanin concentration (%) [1, 4] [%] | Cell activity (in words) [2] | Cell appearance under microscope [3] | Tyrosinase activity (in words) (tyrosinase) | Percentage of cellular melanin concentration (%) ([1]; 0.01 μM) | Percentage of cellular melanin concentration (%) ([1]; 0.1 μM (MSH concentration)) | Percentage of cellular melanin concentration (%) ([1]; 1 μM) | Percentage of cellular melanin concentration (%) ([1]; 5 μM) | Percentage of cellular melanin concentration (%) ([1]; 10 μM) | Cell activity percentage (%) ([2]; human, 0.01 μM) | Cell activity percentage (%) ([2]; human, 0.1 μM) | Cell activity percentage (%) ([2]; human, 1 μM) | Cell activity percentage (%) ([2]; human, 5 μM) | Cell activity percentage (%) ([2]; human, 10 μM) | also measured |
| --- | --- | --- | --- | --- | --- | --- | --- | --- | --- | --- | --- | --- | --- | --- | --- | --- | --- | --- | --- | --- | --- |
|  |  |  |  |  | O=c1cc(CO)occ1O [Kojic acid, reference compound] | reduced melanin content | 66.34 | less effects on cell activity |  |  |  |  |  |  |  |  |  |  |  |  | Cell activity percentage (%) ([2]; human, 100 μM): 72.87% |
| 84.15 | 72.96 | 45.91 | 18.04 | 14.59 | C=C1OC(=O)/C(=C\CCCCCCCCCCCCC)[C@H]1O [Linderanolide B, linderanolide B] | cell melanin content decreased |  | reduced along with higher concentrations | partial toxicity to cells | reduced along with elevated concentrations | 89.63 | 78.63 | 67.56 | 28.93 | 24.39 | 94.19 | 87.52 | 83 | 62.41 | 54.26 |  |
|  |  |  |  |  | NC(=S)Nc1ccccc1 [N-phenylthiourea, reference compound] | reduced melanin content | 77.56 |  |  | less effective to tyrosinase activity |  |  |  |  |  |  |  |  |  |  | Tyrosinase activity percentage (%) (tyrosinase; [4]): 71.07%; Cell activity percentage (%) ([2]; 100 μM, MTS, control = 100%): 79.07%; Cell activity (in words) ([2]; FIG. 2A): less effects on cell activity |
| 78.62 | 74.21 | 44.03 | 7.369 | 7.275 | CCCCCCCCCCCCC/C=C1\C(=O)O[C@@](C)(OC)[C@@H]1O [Subamolide A, subamolide A] | cell melanin content decreased |  | reduced along with higher concentrations | partial toxicity to cells | reduced along with elevated concentrations | 84.11 | 76.85 | 66.1 | 25.12 | 20.2439 | 93.41 | 85.66 | 73.91 | 54.69 | 44.91 |  |
